# According to paper PMC3467217, “A Potent Class of GPR40 Full Agonists Engages the EnteroInsular Axis to Promote Glucose Control in Rodents” (PLoS ONE, 2012):
# Key:
# GPR40 [1] = biological target: T1, GPR40 (Homo sapiens, UniProt O14842); experiment: Inositol phosphate accumulation assay in A9 cells stably expressing GPR40 (A9_GPR40); format: cell-based; settings: for agonist character: inositol phosphate accumulation, A9 cells stably expressing GPR40 (figure S1)
# T1 construct: expressed in transfected cells; host or cells: CHO cell line stably expressing GPR40 and aequorin
# Procedure: (§1) GPR40 aequorin, plasmid titration, and inositol phosphate assays were performed as described. For aequorin assays, in addition to transient transfection of GPR40 into CHO cells, a CHO cell line stably expressing both GPR40 and aequorin was generated. GLUTag cells were obtained under a license from Dr. Daniel Drucker, University of Toronto. Competition binding experiments were performed using membranes prepared from A9_GPR40 cells. […] Competition binding assays were carried out in 20 mM Hepes pH 7.5, 5 mM MgCl2, 100 mM NaCl and 0.1% (w/v) free fatty acid BSA and bound radioligand was collected on 96-well GF/C filter plates.
# (A) Structure of selected GPR40 agonists. (B) GPR40 agonists were tested in parallel in vitro in an inositol phosphate accumulation assay in A9 cells stably expressing GPR40. (TIF) Click here for additional data file.
# humans = settings: cited from earlier work
# [2] = test system: islets isolated from GPR40 knockout mice; experiment: GSIS assay with islets from GPR40 knock-out mice; format: cell-based, mouse
# Procedure: (§2) Mouse islets were isolated and tested for stimulation of GSIS as described. Human islets were purchased from Prodo labs or were obtained from the National Institutes of Health and Juvenile Diabetes Research Foundation supported Islet Cell Resource Consortium (http://icr.coh.org). Islet inositol phosphate assays were performed on islets cells that had been dispersed with trypsin. 10,000 islet cells were plated/well of a 96-well plate and were loaded with ^3H-myo-inositol (0.5 µCi/well) in RPMI overnight prior to treatment. The next day, response to different stimuli was tested in HBSS containing 10 mM LiCl and 0.1% HSA (w/v) for 1 hour at 37°C. Accumulated ^3H-inositol phosphate was measured after capture to SPA beads. Islet perifusion experiments were performed on mouse islets loaded into a Brandel Suprafusion system. Twenty islets were size-matched and loaded per perifusion chamber. Islets were perifused in KRBH containing, sequentially, 3 mM glucose, then 3 mM glucose containing 10 µM drug, 16.7 mM glucose containing 10 µM drug and finally returned to 3 mM glucose containing 10 µM drug. Insulin was measured using an insulin ELISA kit (Alpco). Fetal rat intestinal cells were isolated from e19-day old fetuses of pregnant Sprague-Dawley rats. Briefly, fetal intestines were isolated and digested in HBSS buffer containing 0.5 mg/ml collagenase (Sigma), 0.5 mg/ml of hyaluronidase (Sigma) and 0.05 mg/ml of deoxyribonuclease I (Roche) for 30 minutes at 37°C. The digestion was quenched using HBSS containing 15% FBS. Fetal rat intestinal cells were washed and cultured overnight in DMEM containing 5% FBS in 96-well plates. To test for secretion of GLP-1 and GIP in response to treatments, we incubated cells for 1 hour with treatments in KRBH buffer containing 0.05% BSA (w/v). GLP-1 and GIP1 secreted into the media was measured using ELISA kits specific for GLP-1 (Linco) or GIP (Millipore).
# GPR40 [3] = biological target: T1, GPR40; experiment: Aequorin Ca2+ flux assay in CHO cell line stably expressing GPR40; format: cell-based; settings: CHO-GPR40 stable cell line; for Emax: compared to natural free fatty acid ligands, read-out: Emax (efficacy)
# Procedure: Since GPR40 agonists with greater intrinsic activity may have improved anti-diabetic properties, we focused our efforts to discover potent synthetic full agonists.
# as §1
# mouse islets [4] = experiment: Mouse islet perifusion assay; format: cell-based; settings: 10 µM compound
# Procedure: as §2
# [5] = test system: fetal rat intestinal cells; experiment: GLP-1 secretion assay with fetal rat intestinal cells; format: cell-based; settings: 1 hour
# Source text: (§3) Increased GLP-1 and GIP would be expected to have additional benefits in type 2 diabetics. […] We tested for potential effects on incretin secretion in vitro by using cells isolated from fetal rat intestines.
# Mouse islets were isolated and tested for stimulation of GSIS as described. Human islets were purchased from Prodo labs or were obtained from the National Institutes of Health and Juvenile Diabetes Research Foundation supported Islet Cell Resource Consortium (http://icr.coh.org). Islet inositol phosphate assays were performed on islets cells that had been dispersed with trypsin. 10,000 islet cells were plated/well of a 96-well plate and were loaded with ^3H-myo-inositol (0.5 µCi/well) in RPMI overnight prior to treatment. The next day, response to different stimuli was tested in HBSS containing 10 mM LiCl and 0.1% HSA (w/v) for 1 hour at 37°C. Accumulated ^3H-inositol phosphate was measured after capture to SPA beads. Islet perifusion experiments were performed on mouse islets loaded into a Brandel Suprafusion system. Twenty islets were size-matched and loaded per perifusion chamber. […] Insulin was measured using an insulin ELISA kit (Alpco). […] GLP-1 and GIP1 secreted into the media was measured using ELISA kits specific for GLP-1 (Linco) or GIP (Millipore).
# HF/STZ mice [6] = experiment: OGTT in high-fat fed, streptozotocin-treated (HF/STZ) type 2 diabetic mice; format: in vivo, mouse
# Procedure: (§4) All procedures on animals were approved by the Amgen San Francisco Institutional Animal Care and Use Committee (approved protocols #11–04 and #2007–00106). The Amgen San Francisco vivarium is an AAALAC accredited facility. Animals were housed under a 12-h light, 12-h dark cycle (lights-on 0600 h and lights-off 1800 h) and were allowed ad libidum access to chow and water. The HF/STZ mice were established as previously described. Briefly, C57BL/6j mice (Jackson labs) at 4 weeks of age were fed a high-fat diet (BioServ S1850, 35% fat) for 3-weeks and then injected with 95 mg/kg streptozotocin (Sigma) ip to induce beta cell dysfunction. The animals continued on the same high fat diet for 3–6 additional weeks. Animals were then randomized into treatment groups based on fasting blood glucose and insulin measures. NONcNZO10/LtJ (RCS10) male mice (Jackson labs) were used at 12-weeks of age and randomized for treatment based on fasting glucose levels. For OGTT experiments, drugs were formulated in 1% HPMC, 10% HPbCD, 1% Tween-80 and dosed via oral gavage. Glucose was administered at 2 g/kg 1-hour post drug dose by oral gavage.
# (§5) For all glucose tolerance tests, glucose and insulin measurements were taken from tail vein samples at various time-points. Blood glucose values were measured on an Accu-Chek glucometer (Roche Diagnostics), while insulin levels were determined using an ELISA (Alpco).
# [7] = Unbound plasma drug concentration in HF/STZ mice; format: in vivo; settings: C57BL/6j, mouse, 100 mg/kg oral, 1-hour post drug administration, by MS, read-out: free drug level in plasma
# mouse GPR40 = mouse GPR40 (Mus musculus, UniProt Q76JU9); experiment: Mouse GPR40 inositol phosphate accumulation assay; format: cell-based
# Procedure: as §1
# HF/STZ mice [8] = experiment: Single oral dose without glucose challenge in HF/STZ mice: GLP-1, insulin, glucose, GIP; format: in vivo, mouse
# Procedure: The increase in insulin secretion by GPR40 agonists is due to direct stimulation of GPR40 receptors on pancreatic β-cells, but may also be derived from stimulation of the gut peptides GLP-1 and GIP, which subsequently act on the GLP-1 and GIP G protein-coupled receptors found on pancreatic β-cells. […] No glucose challenge was performed in order to isolate the effects of the compounds alone.
# as §4
# Zucker fatty rats = settings: 21-day, qd dosing; cited from earlier work
# [9] = test system: wild type and GPR40 knockout mice; experiment: OGTT and GLP-1 secretion in wild type and GPR40 null mice; format: in vivo, mouse; settings: OGTT, single oral dose
# Procedure: as §4, §5
# GPR40 [10] = biological target: T1, GPR40; experiment: Competition binding with 3H-AM-1638 on A9_GPR40 membranes; settings: unlabelled competitor
# Procedure: as §1
# GPR41 (FFAR3) = biological target: T2, GPR41 (FFAR3) (Homo sapiens, UniProt O14843); experiment: GPR41 aequorin assay; format: cell-based; settings: up to 10 µM
# T2 construct: expressed in transfected cells
# Source text: (§6) (A) GPR41 (FFAR3) aequorin assay. GPR41 was force coupled to the calcium signaling pathway by co-transfecting the cells with Gqmyri5. (B) GPR43 (FFAR2) aequorin assay. The short chain fatty acid propionate acts as a natural agonist ligand for GPR41 and GPR43. (C) GPR120 aequorin assay. The unsaturated fatty acids α-LNN and DHA act as natural agonist ligands for GPR120. (D) PPAR-gamma luciferase assay using the thiazolidinedione rosiglitazone as a positive control. […] (TIF) Click here for additional data file.
# GPR43 (FFAR2) = biological target: T3, GPR43 (FFAR2) (Homo sapiens, UniProt O15552); experiment: GPR43 aequorin assay; format: cell-based; settings: up to 10 µM
# T3 construct: expressed in transfected cells
# Source text: as §6
# GPR120 = biological target: T4, GPR120 (Homo sapiens, UniProt Q5NUL3); experiment: GPR120 aequorin assay; format: cell-based; settings: weak activity
# T4 construct: expressed in transfected cells
# Source text: as §6
# PPAR alpha = PPAR alpha (Homo sapiens, UniProt Q07869); experiment: PPAR-alpha luciferase reporter assay; format: cell-based; settings: concentrations up to 10 µM
# PPAR delta = PPAR delta (Homo sapiens, UniProt Q03181); experiment: PPAR-delta luciferase reporter assay; format: cell-based; settings: concentrations up to 10 µM
# PPAR gamma = PPAR gamma (Homo sapiens, UniProt P37231); experiment: PPAR-gamma luciferase assay; format: cell-based; settings: concentrations up to 10 µM
# Source text: as §6
# mouse islets [11] = experiment: GSIS assay in mouse islets; format: cell-based; settings: 16.7 mM glucose
# Procedure: as §2
# human islet cells = experiment: Inositol phosphate assay with dispersed human islet cells; format: cell-based
# Procedure: (§7) Mouse islets were isolated and tested for stimulation of GSIS as described. Human islets were purchased from Prodo labs or were obtained from the National Institutes of Health and Juvenile Diabetes Research Foundation supported Islet Cell Resource Consortium (http://icr.coh.org). Islet inositol phosphate assays were performed on islets cells that had been dispersed with trypsin. 10,000 islet cells were plated/well of a 96-well plate and were loaded with ^3H-myo-inositol (0.5 µCi/well) in RPMI overnight prior to treatment. The next day, response to different stimuli was tested in HBSS containing 10 mM LiCl and 0.1% HSA (w/v) for 1 hour at 37°C. Accumulated ^3H-inositol phosphate was measured after capture to SPA beads. Islet perifusion experiments were performed on mouse islets loaded into a Brandel Suprafusion system. Twenty islets were size-matched and loaded per perifusion chamber. Islets were perifused in KRBH containing, sequentially, 3 mM glucose, then 3 mM glucose containing 10 µM drug, 16.7 mM glucose containing 10 µM drug and finally returned to 3 mM glucose containing 10 µM drug. Insulin was measured using an insulin ELISA kit (Alpco). Fetal rat intestinal cells were isolated from e19-day old fetuses of pregnant Sprague-Dawley rats. […] GLP-1 and GIP1 secreted into the media was measured using ELISA kits specific for GLP-1 (Linco) or GIP (Millipore).
# human islets = experiment: GSIS assay with human islets; format: cell-based; settings: 12.5 mM glucose
# Procedure: as §7
# GLUTag cells = experiment: Inositol phosphate accumulation assay in GLUTag enteroendocrine L-cell line; format: cell-based, mouse
# Procedure: as §3, §1
# T1 sequence (O14842 whole entry): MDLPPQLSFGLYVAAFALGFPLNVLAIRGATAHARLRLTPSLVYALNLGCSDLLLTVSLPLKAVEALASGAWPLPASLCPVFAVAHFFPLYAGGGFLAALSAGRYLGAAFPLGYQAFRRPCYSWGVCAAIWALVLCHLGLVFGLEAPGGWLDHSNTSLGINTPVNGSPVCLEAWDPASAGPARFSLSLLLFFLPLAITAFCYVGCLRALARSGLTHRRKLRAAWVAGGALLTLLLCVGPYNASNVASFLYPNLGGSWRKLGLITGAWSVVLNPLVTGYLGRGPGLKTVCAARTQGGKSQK
# T2 sequence (O14843 whole entry, species assumed): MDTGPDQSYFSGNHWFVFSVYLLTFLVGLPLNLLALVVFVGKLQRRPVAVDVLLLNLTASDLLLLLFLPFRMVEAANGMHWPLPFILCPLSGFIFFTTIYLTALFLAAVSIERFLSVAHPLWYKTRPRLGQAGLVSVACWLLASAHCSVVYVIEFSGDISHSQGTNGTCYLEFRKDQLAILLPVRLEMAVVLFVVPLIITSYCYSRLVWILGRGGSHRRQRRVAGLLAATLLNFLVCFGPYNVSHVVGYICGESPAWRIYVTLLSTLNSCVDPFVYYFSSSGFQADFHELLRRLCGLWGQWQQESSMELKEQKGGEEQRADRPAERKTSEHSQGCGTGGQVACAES
# Sequence of PPAR delta (Q03181 whole entry): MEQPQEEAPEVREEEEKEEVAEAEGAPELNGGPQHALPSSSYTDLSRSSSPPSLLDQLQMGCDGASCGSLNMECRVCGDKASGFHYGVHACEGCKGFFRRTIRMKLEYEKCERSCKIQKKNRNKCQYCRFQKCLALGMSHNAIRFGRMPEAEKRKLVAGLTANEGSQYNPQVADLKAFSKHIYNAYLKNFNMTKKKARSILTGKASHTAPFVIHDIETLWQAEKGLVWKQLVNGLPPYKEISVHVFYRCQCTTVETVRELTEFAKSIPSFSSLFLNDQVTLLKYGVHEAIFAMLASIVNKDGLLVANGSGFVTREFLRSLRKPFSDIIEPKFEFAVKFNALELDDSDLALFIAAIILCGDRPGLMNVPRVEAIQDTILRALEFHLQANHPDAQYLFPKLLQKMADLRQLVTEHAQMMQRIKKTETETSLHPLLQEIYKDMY
# Sequence of mouse GPR40 (Q76JU9 whole entry): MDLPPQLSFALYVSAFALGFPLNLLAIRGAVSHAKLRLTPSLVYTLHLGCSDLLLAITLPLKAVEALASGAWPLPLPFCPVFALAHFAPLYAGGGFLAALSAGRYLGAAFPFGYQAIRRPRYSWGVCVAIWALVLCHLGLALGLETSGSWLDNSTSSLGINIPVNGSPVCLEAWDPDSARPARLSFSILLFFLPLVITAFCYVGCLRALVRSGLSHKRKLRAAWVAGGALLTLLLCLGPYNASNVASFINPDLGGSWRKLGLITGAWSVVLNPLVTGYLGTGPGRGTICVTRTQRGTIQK
# T3 sequence (O15552 whole entry, species assumed): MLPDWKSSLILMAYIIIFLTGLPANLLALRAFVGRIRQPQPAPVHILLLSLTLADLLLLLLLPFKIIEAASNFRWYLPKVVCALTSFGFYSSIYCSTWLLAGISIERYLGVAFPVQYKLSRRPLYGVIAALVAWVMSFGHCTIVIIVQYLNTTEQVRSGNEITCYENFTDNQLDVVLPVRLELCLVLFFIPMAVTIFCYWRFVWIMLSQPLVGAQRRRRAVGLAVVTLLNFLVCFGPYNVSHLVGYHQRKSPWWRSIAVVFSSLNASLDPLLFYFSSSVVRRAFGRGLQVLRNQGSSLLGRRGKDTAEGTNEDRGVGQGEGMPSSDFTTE
# T4 sequence (Q5NUL3 whole entry, species assumed): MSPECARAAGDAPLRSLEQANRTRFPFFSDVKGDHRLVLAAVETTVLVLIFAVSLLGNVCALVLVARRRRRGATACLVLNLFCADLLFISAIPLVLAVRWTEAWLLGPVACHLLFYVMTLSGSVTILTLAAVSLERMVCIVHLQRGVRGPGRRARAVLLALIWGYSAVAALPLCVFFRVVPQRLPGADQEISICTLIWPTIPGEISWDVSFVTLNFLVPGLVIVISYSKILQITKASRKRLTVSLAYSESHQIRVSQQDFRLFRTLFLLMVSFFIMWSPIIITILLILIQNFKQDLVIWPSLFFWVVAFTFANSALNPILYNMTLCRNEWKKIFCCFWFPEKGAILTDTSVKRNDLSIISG
# Sequence of PPAR gamma (P37231 whole entry): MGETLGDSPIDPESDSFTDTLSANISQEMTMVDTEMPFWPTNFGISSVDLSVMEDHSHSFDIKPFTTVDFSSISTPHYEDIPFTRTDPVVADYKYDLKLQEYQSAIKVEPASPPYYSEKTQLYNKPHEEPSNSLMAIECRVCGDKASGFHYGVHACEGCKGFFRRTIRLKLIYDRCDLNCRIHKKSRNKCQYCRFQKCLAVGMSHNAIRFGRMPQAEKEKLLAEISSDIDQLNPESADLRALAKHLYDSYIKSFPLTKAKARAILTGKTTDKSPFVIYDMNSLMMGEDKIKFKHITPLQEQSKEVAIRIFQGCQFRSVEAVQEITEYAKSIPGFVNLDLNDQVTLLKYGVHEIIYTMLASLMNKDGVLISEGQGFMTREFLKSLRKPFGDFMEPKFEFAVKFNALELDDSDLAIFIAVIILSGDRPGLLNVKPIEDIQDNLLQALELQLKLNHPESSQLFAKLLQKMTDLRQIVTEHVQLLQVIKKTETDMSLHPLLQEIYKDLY
# Sequence of PPAR alpha (Q07869 whole entry, species assumed): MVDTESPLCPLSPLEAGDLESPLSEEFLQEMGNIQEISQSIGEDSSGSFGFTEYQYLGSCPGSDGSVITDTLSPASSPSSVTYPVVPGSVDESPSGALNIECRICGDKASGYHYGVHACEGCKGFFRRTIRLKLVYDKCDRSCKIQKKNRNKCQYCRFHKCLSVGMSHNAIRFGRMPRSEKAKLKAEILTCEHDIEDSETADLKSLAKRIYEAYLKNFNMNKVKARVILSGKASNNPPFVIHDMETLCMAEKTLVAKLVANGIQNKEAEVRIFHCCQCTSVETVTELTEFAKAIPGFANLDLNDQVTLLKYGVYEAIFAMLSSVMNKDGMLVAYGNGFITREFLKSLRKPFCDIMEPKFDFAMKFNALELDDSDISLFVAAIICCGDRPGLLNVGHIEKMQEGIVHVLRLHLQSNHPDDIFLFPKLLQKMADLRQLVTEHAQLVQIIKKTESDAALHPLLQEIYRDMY
compound,measurement,setting,value
"Cc1ccccc1C#Cc1ccc(CCC(=O)O)cc1 [TUG-424, reference compound]",agonist character,GPR40 [1],partial agonists
Cc1cc(OCCCS(C)(=O)=O)cc(C)c1-c1cccc(COc2ccc3c(c2)OC[C@H]3CC(=O)O)c1 [TAK-875],glycemic parameters in type 2 diabetic subjects,humans,improve glycemic parameters
same,incretin levels in type 2 diabetic patients,humans,not associated with a change in incretin levels
Exendin-4: exerts its effects via GLP-1R [reference compound],GSIS response of GPR40 knockout islets,[2],did respond
CC#CC(CC(=O)O)c1ccc(OCc2ccc(-c3cccc(OC)c3)cc2)cc1 (racemic) [(±)-AM-8596],EC50,GPR40 [3],1500 ± 170 nM
same,Emax,GPR40 [3],98%
C/C=C/[C@H](CC(=O)O)c1ccc(OCc2ccc(-c3cc(OC)ccc3F)cc2)cc1 [AM-8182],EC50,GPR40 [3],2400 ± 100 nM
same,Emax,GPR40 [3],106%
"CC#C[C@@H](CC(=O)O)c1ccc(OCc2cccc(-c3ccc(C(F)(F)F)cc3)c2)cc1 [AMG 837, reference compound]",insulin stimulation compared to vehicle control,mouse islets [4]; 3 mM glucose,neither AMG 837 nor AM-1638 stimulated insulin
same,insulin secretion,mouse islets [4]; 16.7 mM glucose,increased both first and second phase insulin secretion
same,GLP-1 release in vitro,[5],could stimulate GLP-1 release
same,Glucose AUC improvement,"HF/STZ mice [6]; OGTT, 100 mg/kg oral, 1 hour before glucose",19%
same,doses at which maximally efficacious,HF/STZ mice [6]; preliminary experiments,≥ 60 mg/kg
same,concentration at 1 h,[7],826 ± 66 nM
same,EC50,mouse GPR40,11 ± 0.05 nM
same,blood glucose levels,"HF/STZ mice [8]; HF/STZ mice, single oral dose, no glucose challenge",stabilized blood glucose levels
same,GLP-1 or GIP levels in vivo,"HF/STZ mice [8]; oral gavage, doses as high as 100 mg/kg",does not substantially increase
same,glucose and insulin levels in healthy volunteers,"humans; phase 1 clinical trials, ref Amgen, data on file",did not lower glucose or increase insulin levels
same,anti-diabetic effects after repeated dosing,Zucker fatty rats,sustained anti-diabetic effects
"N[C@@H](CC(=O)N1CCn2c(nnc2C(F)(F)F)C1)Cc1cc(F)c(F)cc1F [sitagliptin, reference compound]",improvement in pre- and post-challenge glucose levels,[9]; GPR40 knockout mice,maintained in both
same,improvement in pre- and post-challenge glucose levels,[9]; wild type mice,maintained in both
CC[C@H](CC(=O)O)c1cccc(OCc2ccc(-c3cc(OC)ccc3F)c([C@@H]3CCCC3(C)C)c2)c1F [AM-6226],EC50,GPR40 [3],130 ± 30 nM
same,Emax,GPR40 [3],105%
same,"intrinsic activity, fold greater than AMG 837",GPR40 [1]; inositol phosphate assay,~2 fold
same,EC50,"GPR40 [1]; inositol phosphate assay, 1-hour accumulation, read-out: Half-maximal potency",5.7 ± 0.8 nM
same,displacement of 3H-AM-1638,GPR40 [10],displaced ^3H-AM-1638
same,activation of GPR41 (FFAR3),GPR41 (FFAR3),did not activate
same,activation of GPR43 (FFAR2),GPR43 (FFAR2),did not activate
same,EC50,GPR120,~5000 nM
same,activation of PPAR alpha,PPAR alpha,did not activate
same,activation of PPAR delta,PPAR delta,did not activate
same,activation of PPAR gamma,PPAR gamma,did not activate
same,"increase of insulin secretion, fold from that of AMG 837",mouse islets [11],3–4 fold
same,EC50,mouse islets [11]; read-out: EC50 for potentiation of insulin secretion,940 ± 600 nM
same,GSIS response of GPR40 knockout islets,[2],did not respond
same,"IP production efficacy, fold greater than AMG 837",human islet cells,8–10 ×
same,stimulation of insulin secretion compared with AMG 837,human islets,significantly greater
same,"inositol phosphate accumulation, fold increase compared to AMG 837",GLUTag cells,3–4 fold
"O=C(O)CCc1ccc(NCc2cccc(Oc3ccccc3)c2)cc1 [GW-9508, reference compound]",agonist character,GPR40 [1],partial agonists
